Read-outs that look alike come from different tables or passages of the source. Ends that are not written are not given here.
Key:
ACE = conditions: cited from earlier work
Source text: ACE inhibitors (ACEIs) inhibit ACE activity and reduce blood pressure by inhibiting the synthesis of angiotensin II or promoting the release of bradykinin. Although ACEIs, such as enalapril, captopril, and lisinopril, are widely used in hypertension treatments, synthetic ACEIs have a series of negative effects, including hypotension, cough, increased potassium levels and, angioedema. Consequently, the development of safe and effective antihypertensive drugs is important, and due to antihypertensive effects and safety, there has been an increasing interest in food-derived ACE inhibito ...

ACE (from rabbit lung) [1] = target: T1, ACE (from rabbit lung) (Oryctolagus cuniculus, UniProt P12822); assay: In vitro simulated gastrointestinal digestion (pepsin, then trypsin) followed by ACE inhibitory activity assay; type: in vitro ADME; conditions: for stability for pepsin and trypsin digestion: in vitro digestion, read-out ACE inhibitory activity
T1 construct: ACE (from rabbit lung); purchased Sigma Chemical Co. (St. Louis, MO, USA); host or cells: rabbit lung tissue
T1 sequence (P12822 34-1310): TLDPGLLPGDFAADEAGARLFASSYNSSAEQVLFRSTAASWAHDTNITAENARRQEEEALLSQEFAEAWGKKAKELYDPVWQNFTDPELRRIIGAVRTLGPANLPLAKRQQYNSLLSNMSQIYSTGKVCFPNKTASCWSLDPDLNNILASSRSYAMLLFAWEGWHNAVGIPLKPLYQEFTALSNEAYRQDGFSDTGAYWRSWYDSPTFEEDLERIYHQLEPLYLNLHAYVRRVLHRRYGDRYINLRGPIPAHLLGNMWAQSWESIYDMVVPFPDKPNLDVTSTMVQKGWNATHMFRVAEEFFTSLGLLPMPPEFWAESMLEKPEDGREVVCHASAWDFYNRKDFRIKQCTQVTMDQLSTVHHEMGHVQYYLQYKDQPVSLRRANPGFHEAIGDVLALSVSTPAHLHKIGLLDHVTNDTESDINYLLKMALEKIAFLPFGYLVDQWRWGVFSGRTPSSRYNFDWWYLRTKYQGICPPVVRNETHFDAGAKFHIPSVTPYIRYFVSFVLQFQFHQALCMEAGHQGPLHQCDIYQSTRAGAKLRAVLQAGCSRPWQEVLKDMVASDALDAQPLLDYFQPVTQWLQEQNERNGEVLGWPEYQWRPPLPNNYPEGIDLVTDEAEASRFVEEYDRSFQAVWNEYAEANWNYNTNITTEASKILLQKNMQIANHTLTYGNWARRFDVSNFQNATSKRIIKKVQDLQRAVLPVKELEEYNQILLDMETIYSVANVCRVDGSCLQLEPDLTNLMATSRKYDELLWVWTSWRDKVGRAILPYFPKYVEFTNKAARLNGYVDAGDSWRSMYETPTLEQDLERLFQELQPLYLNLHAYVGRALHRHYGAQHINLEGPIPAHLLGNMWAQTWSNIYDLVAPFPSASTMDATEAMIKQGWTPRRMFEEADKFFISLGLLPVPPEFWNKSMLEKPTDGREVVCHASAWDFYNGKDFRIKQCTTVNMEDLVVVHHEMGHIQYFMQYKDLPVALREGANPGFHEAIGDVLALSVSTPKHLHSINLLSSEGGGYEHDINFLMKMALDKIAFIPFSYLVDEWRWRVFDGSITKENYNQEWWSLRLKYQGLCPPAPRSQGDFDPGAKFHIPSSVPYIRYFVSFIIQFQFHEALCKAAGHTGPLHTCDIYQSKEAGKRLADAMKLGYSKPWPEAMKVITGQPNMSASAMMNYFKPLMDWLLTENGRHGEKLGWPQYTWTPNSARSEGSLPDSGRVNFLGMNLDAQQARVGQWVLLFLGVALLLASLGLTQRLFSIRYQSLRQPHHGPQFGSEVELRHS
Method: (§1) ACE inhibition was examined according to Shalaby et al. and Henda et al., with slight modifications. FAPGG and ACE were dissolved in 50 mM Tris-HCl (pH 7.5) containing 300 mM NaCl. A sample solution (40 μL) was mixed with 100 μL of 0.88 mM FAPGG solution, and the mixture was incubated at 37 °C for 5 min. To start the reaction, 60 μL of ACE solution (0.20 U/mL) was added; absorbance was measured at 340 nm and recorded every 1 min for 30 min using a SpectraMax 190 absorbance microplate reader (Molecular Devices, Sunnyvale, USA). The slope averaged over a linear interval of 10–30 min was taken as a measure of the ACE inhibitory activity. The degree of ACE inhibition was calculated according to the following equation: ACE inhibition rate (%) = [1 − (slope inhibitior/slope control)] × 100(2)
In vitro digestion was performed according to the method of Cing et.al. The purified peptide sample was mixed with 0.1 M phosphate buffer (pH 2.0) and pepsin (E/S 4%, w/w); the reaction was allowed to proceed for 2 h at 37 °C and stopped by heating at 100 °C for 10 min. Subsequently, the remaining suspension was adjusted to pH 8.0 with 5 M NaOH solution and further digested with trypsin (E/S 4%, w/w); the solution was incubated at 37 °C for 2 h and then heated at 100 °C for 10 min. The protein hydrolysate was centrifuged at 8000 rpm/min for 15 min, and the supernatant was assayed for ACE inhibitory activity.

ACE (from rabbit lung) [2] = target: T1, ACE (from rabbit lung); assay: ACE inhibition and IC50 assay (FAPGG substrate); type: biochemical
Method: as §1
The activity of each sample was tested in triplicate. The IC50 value, the concentration of peptide required to reduce ACE activity by 50%, was determined by regression analysis of ACE inhibition (%) vs. peptide concentration.

[3] = target: T2, Angiotensin I-converting enzyme (from rabbit lung) (rabbit) (UniProt P12822)
T2 sequence: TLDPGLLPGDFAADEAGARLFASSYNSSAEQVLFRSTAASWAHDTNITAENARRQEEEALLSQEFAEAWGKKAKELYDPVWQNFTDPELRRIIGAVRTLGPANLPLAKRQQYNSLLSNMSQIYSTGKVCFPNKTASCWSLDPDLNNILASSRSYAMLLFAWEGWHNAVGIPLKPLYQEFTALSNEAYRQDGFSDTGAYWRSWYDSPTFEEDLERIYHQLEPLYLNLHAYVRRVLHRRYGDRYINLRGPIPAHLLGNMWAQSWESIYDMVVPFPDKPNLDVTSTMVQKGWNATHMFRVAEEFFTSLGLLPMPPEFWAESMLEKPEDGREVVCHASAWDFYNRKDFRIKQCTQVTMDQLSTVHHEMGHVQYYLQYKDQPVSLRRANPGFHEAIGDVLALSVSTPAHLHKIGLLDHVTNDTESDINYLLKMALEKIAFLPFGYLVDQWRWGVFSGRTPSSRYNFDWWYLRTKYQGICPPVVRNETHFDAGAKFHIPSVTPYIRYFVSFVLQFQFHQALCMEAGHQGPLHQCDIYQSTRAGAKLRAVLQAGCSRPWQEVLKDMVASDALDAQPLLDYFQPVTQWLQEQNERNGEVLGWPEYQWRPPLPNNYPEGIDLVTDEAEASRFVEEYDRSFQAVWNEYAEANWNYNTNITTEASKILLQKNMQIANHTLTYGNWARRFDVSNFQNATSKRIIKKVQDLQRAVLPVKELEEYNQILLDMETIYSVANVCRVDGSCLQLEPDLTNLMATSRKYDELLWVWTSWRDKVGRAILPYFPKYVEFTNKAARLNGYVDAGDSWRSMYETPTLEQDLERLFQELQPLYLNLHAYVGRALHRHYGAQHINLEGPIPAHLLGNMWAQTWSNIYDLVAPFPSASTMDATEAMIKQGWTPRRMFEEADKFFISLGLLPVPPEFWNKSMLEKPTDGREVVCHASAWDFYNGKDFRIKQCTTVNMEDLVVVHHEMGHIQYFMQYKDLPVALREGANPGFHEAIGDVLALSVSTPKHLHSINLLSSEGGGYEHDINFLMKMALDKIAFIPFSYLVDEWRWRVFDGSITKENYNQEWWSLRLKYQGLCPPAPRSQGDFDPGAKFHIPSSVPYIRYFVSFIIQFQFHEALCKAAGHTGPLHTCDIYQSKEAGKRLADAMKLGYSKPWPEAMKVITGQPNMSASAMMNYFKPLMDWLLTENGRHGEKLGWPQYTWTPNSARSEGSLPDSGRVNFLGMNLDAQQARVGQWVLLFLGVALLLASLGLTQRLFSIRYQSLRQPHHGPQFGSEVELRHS

[4] = target: T2, Angiotensin I-converting enzyme (from rabbit lung) (rabbit); remark: listed apart in the source
[5] = peptides from Undaria pinnatifida
[6] = peptides from Porphyra yezoensis
[7] = peptides purified from Ulva rigida protein hydrolysate
[8] = pH 2, synthetic peptide at 0.2 mg/mL, after pepsin hydrolysis for 2 h (0.1 M phosphate buffer pH 2.0, E/S 4% w/w, 37 °C)
[9] = synthetic peptide at 0.2 mg/mL, Control (no digestion)
[10] = synthetic peptide at 0.2 mg/mL, pepsin hydrolysis for 2 h (pH 2.0, 37 °C) followed by trypsin hydrolysis for 2 h (pH 8.0, 37 °C), E/S 4% w/w each
[11] = peptides identified in fraction C2-8, FAPGG 0.88 mM, ACE 0.20 U/mL, 50 mM Tris-HCl pH 7.5, 300 mM NaCl, 37 °C, absorbance 340 nm, tested in triplicate
[12] = purified ACE inhibitors, same values as in μM given in mg/mL

In the case of Ala-Ile-Tyr-Lys, the IC50 (ACE; [5]) is given as 213 µM.

For Ala-Lys-Tyr-Ser-Tyr, the IC50 (ACE; [6]) is given as 1.52 µM.

For Ala-Phe-Leu, the IC50 (ACE; [7]) is given as 65.8 µM.

For “FGMPLDR [FGMPLDR, Phe-Gly-Met-Pro-Leu-Asp-Arg]”, the “stability for pepsin and trypsin digestion” value (ACE (from rabbit lung) [1]) was “good stability”, the inhibition at 200 µg/mL (ACE (from rabbit lung) [1]; [8]) was 52.98 ± 0.19% and the inhibition at 200 µg/mL (ACE (from rabbit lung) [1]; [9]) was 50.07 ± 0.07%. The inhibition at 200 µg/mL (ACE (from rabbit lung) [1]; [10]) was 51.32 ± 0.02%, the IC50 (ACE (from rabbit lung) [2]; [11]) was 219 µM and the IC50 (ACE (from rabbit lung) [2]; [12]) was 219 µM.

In the case of Gln-Val-Glu-Tyr, the IC50 (ACE; peptide from hydrolyzed Gracilariopsis lemaneiformis) is given as 474 µM.

For Ile-Pro, the IC50 (ACE; [7]) is listed as 87.6 µM.

In the case of Ile-Tyr, the IC50 (ACE; [6]) is listed as 2.69 µM.

For Leu-Arg-Tyr, the IC50 (ACE; [6]) is given as 5.06 µM.

In the case of Lys-Phe-Tyr-Gly, the IC50 (ACE; [5]) is given as 90.5 µM.

In the case of “MELVLR [MELVLR, Met-Glu-Leu-Val-Leu-Arg]”, the “stability for pepsin and trypsin digestion” value (ACE (from rabbit lung) [1]) is reported as “good stability”, the inhibition at 200 µg/mL (ACE (from rabbit lung) [1]; [8]) is reported as 56.84 ± 0.04% and the inhibition at 200 µg/mL (ACE (from rabbit lung) [1]; [9]) is reported as 59.92 ± 0.04%. The inhibition at 200 µg/mL (ACE (from rabbit lung) [1]; [10]) was 58.63 ± 0.13%, the IC50 (ACE (from rabbit lung) [2]; [11]) was 237 µM and the IC50 (ACE (from rabbit lung) [2]; [12]) was 236 µM.

In the case of Met-Lys-Tyr, the IC50 (ACE; [6]) is given as 7.26 µM.

For Tyr-Asn-Lys-Leu, the IC50 (ACE; [5]) is listed as 21 µM.

For Tyr-Lys-Tyr-Tyr, the IC50 (ACE; [5]) is listed as 64.2 µM.

For MELVLR [Met-Glu-Leu-Val-Leu-Arg], the IC50 of ACE inhibition (hydrolysis of FAPGG by ACE, absorbance at 340 nm, 37 °C, 50 mM Tris-HCl pH 7.5, 300 mM NaCl) [3] was 237 μM, the ACE Inhibitory Activity (%) of the synthetic peptide at 0.2 mg/mL, after pepsin hydrolysis for 2 h [4] was 56.8% and the ACE Inhibitory Activity (%) of the synthetic peptide at 0.2 mg/mL, after pepsin hydrolysis for 2 h followed by trypsin hydrolysis for 2 h [4] was 58.6%. The ACE Inhibitory Activity (%) of the synthetic peptide at 0.2 mg/mL, control (not digested) [4] was 59.9%.

FGMPLDR [Phe-Gly-Met-Pro-Leu-Asp-Arg] gave an IC50 of ACE inhibition (hydrolysis of FAPGG by ACE, absorbance at 340 nm, 37 °C, 50 mM Tris-HCl pH 7.5, 300 mM NaCl) [3] of 219 μM, an ACE Inhibitory Activity (%) of the synthetic peptide at 0.2 mg/mL, after pepsin hydrolysis for 2 h [4] of 53% and an ACE Inhibitory Activity (%) of the synthetic peptide at 0.2 mg/mL, after pepsin hydrolysis for 2 h followed by trypsin hydrolysis for 2 h [4] of 51.3%. For the same molecule, the ACE Inhibitory Activity (%) of the synthetic peptide at 0.2 mg/mL, control (not digested) [4] was 50.1%.
